Values joined by “and” are separate entries in the source; they are usually repeats but may differ in a detail not shown here. Equal values may be shown once.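 96-well plates; 48 h exposure; 5 concentrations. Endpoints by linear interpolation between flanking doses. Not reached: highest tested concentration assigned. Abbreviation: GI50, concentration required for 50% inhibition of growth. TGI marks complete inhibition of growth.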
How the values were obtained:
Assay in all cases: NCI-60 cell line screen, 48 h
NCI-H460 lung = test system: NCI-H460 lung
M19-MEL melanoma = test system: M19-MEL melanoma
SF-295 CNS = test system: SF-295 CNS
SNB-78 CNS = test system: SNB-78 CNS
UO-31 renal = test system: UO-31 renal
RXF 393 renal = test system: RXF 393 renal
HCT-116 colon = test system: HCT-116 colon
NCI-H226 lung = test system: NCI-H226 lung
OVCAR-5 ovarian = test system: OVCAR-5 ovarian
DU-145 prostate = test system: DU-145 prostate

Row | SMILES | TGI (NCI-H460 lung) [µM] | TGI (M19-MEL melanoma) [µM] | TGI (SF-295 CNS) [µM] | TGI (SNB-78 CNS) [µM] | TGI (UO-31 renal) | TGI (RXF 393 renal) | TGI (HCT-116 colon) | TGI (NCI-H226 lung) | TGI (OVCAR-5 ovarian) | GI50 (NCI-H460 lung) | GI50 (UO-31 renal) | GI50 (RXF 393 renal) [µM] | GI50 (HCT-116 colon) | GI50 (DU-145 prostate) | TGI (DU-145 prostate) [µM] | GI50 (NCI-H226 lung) | GI50 (OVCAR-5 ovarian) | GI50 (SF-295 CNS) [µM]
1 | CC/C(=N/O)C(C)C(=O)CCC(=O)Nc1ccc(Cl)cc1 (centres undefined) | > 100 | > 100 | > 100 | > 100 | > 100 µM | > 100 µM | > 100 µM | > 100 µM | > 100 µM |  |  |  |  |  |  |  |  | 
2 | C=CCC(O)c1cc(OC)ccc1OC (centres undefined) | > 100 | > 100 | > 100 |  | > 100 µM | > 100 µM |  | > 100 µM | > 100 µM |  |  |  |  |  |  |  |  | 
3 | COC(=O)c1ccc(N/C=C(/C#N)c2ccsc2)cc1 | > 100 | > 100 | 19.9 | 43.4 | 32.5 µM | 23.9 µM | 21.8 µM | 39 µM | > 100 µM |  |  |  |  |  |  |  |  | 
4 | CNC(=O)NCCCCC(NC(=O)OCc1ccccc1)C(=O)OCc1ccccc1 (centres undefined) | > 100 | 48 | 50.3 | 70.8 | 32.7 µM | 33.9 µM | > 100 µM | > 100 µM | > 100 µM |  |  |  |  |  |  |  |  | 
5 | CC[C@H](C)C(=O)O[C@H]1C[C@@H](C)C=C2C=C[C@H](C)[C@H](CC[C@@H]3C[C@@H](O)CC(=O)O3)[C@H]21 | > 100 | > 30 |  |  | 80.7 µM and 29.6 µM and 14.2 µM | 31.8 µM and 13.8 µM and 17.3 µM | 24.5 µM and 16.2 µM | 54.7 µM and > 51 µM and > 30 µM | > 100 µM and 32.9 µM and > 30 µM | 11.4 µM and 5.59 µM | 11 µM and 4.7 µM | 3.48 | 3.77 µM and 2.05 µM | 43.8 µM and 35.5 µM | > 100 | 10.1 µM and 6.22 µM | 12.5 µM and 10.3 µM | 
6 | CC1=C(C(=O)NCc2ccccc2)C(c2ccc(N(C)C)cc2)C(C(=O)NCc2ccccc2)=C(C)N1 | > 100 | > 100 | > 100 | > 100 | > 100 µM | 80.3 µM | > 100 µM | > 100 µM | > 100 µM |  |  |  |  |  |  |  |  | 
7 | NC(CCSCCF)C(=O)O (centres undefined) | > 100 | > 100 |  | > 100 | > 100 µM |  | > 100 µM | > 100 µM | > 100 µM |  |  |  |  |  |  |  |  | 
8 | Nc1nc(N)c2cc(S(=O)(=O)c3ccccc3)ccc2n1 | > 100 |  | 51.9 |  | > 100 µM | > 100 µM | > 100 µM | > 100 µM | > 100 µM | 0.417 µM | 13.3 µM | 72.5 | 0.501 µM | 5.74 µM | > 100 | 5.87 µM | 2.21 µM | 0.792
9 | C=C(C)[C@@H]1CC[C@]2(COC(=O)c3ccccc3C(=O)O)CC[C@]3(C)[C@H](CC[C@@H]4[C@@]5(C)CC[C@H](OC(=O)c6ccccc6C(=O)O)C(C)(C)[C@@H]5CC[C@]43C)[C@@H]12 | > 100 |  | > 100 |  | > 100 µM | 77.3 µM | > 100 µM | > 100 µM | > 100 µM | 85.1 µM | 32.1 µM | 22.6 | 33.1 µM | 32.8 µM | > 100 | 32 µM | > 100 µM | 24.1
10 | COc1ccc(C2C(C(=O)O)=C(CO)Oc3cc4c(cc32)OCO4)c(OC)c1 (centres undefined) | > 100 | > 100 | > 100 | > 100 | > 100 µM | > 100 µM | > 100 µM |  |  |  |  |  |  |  |  |  |  | 

Source: PubChem BioAssay (NCI)
